Starred links: 1 amine or outer side, 2 acyl side, 3 side chain; linkers in the order of their positions; H or OH if unused. Positions of bridges follow the written chain, without caps; N, C: chain ends. Non-standard residues stand in square brackets, D forms with d. Residues, ends and D or L forms follow the SMILES beside them. *: point of attachment. X5 = Cn1nc(C(=O)Nc2ccc(-c3ccc(C[C@H](N[*:1])C(=O)[*:2])cc3)cc2)c2ccccc21; X17 = O=C(Nc1cccc(-c2ccc(C[C@H](N[*:1])C(=O)[*:2])cc2)c1)c1coc2ccccc12; dArg(ω-(2S)-2,3-diOHpropyl) = N=C(NCCC[C@@H](N)C(=O)O)NC[C@H](O)CO; Bip(4'-NH) = O=C([C@H](Cc1ccc(-c2ccc(N[*:3])cc2)cc1)N[*:1])[*:2]; Indazole3carbonyl(1-CH2COOH) = O=C(O)Cn1nc(C(=O)*)c2ccccc21; Bip(4'-COOH) = N[C@@H](Cc1ccc(-c2ccc(C(=O)O)cc2)cc1)C(=O)O; Bip(4'-NHAc) = CC(=O)Nc1ccc(-c2ccc(C[C@H](N)C(=O)O)cc2)cc1; X18 = N=C(NCCC[C@@H](N[*:1])C(=O)[*:2])NCCc1ccc(O)cc1; X26 = N=C(NCCC[C@@H](N[*:1])C(=O)[*:2])NCc1ccc(O)cc1; X6 = N=C(NCCCCC(N)=O)NCCC[C@@H](N[*:1])C(=O)[*:2]; Ala(morpholin-4-yl) = N[C@@H](CN1CCOCC1)C(=O)O; Benzoyl(3-OCH2COOH) = O=C(O)COc1cccc(C(=O)*)c1; Benzoyl(4-OCH2COOH) = O=C(O)COc1ccc(C(=O)*)cc1; Phe(3-CONH2) = NC(=O)c1cccc(C[C@H](N)C(=O)O)c1; Bip = N[C@@H](Cc1ccc(-c2ccccc2)cc1)C(=O)O; X67 = O=C(O)c1ccc(-c2cccc(C(=O)*)c2)cc1; h4Pal = N[C@@H](CCc1ccncc1)C(=O)O; Hyp = O=C(O)[C@@H]1C[C@@H](O)CN1; 2Pal = N[C@@H](Cc1ccccn1)C(=O)O; Tic = O=C(O)[C@@H]1Cc2ccccc2CN1; Cha = N[C@@H](CC1CCCCC1)C(=O)O; Chg = N[C@H](C(=O)O)C1CCCCC1; Tle = CC(C)(C)[C@H](N)C(=O)O; Sar = CNCC(=O)O
molecular target: TNFα (Homo sapiens, UniProt P01375); assay: TNF-Induced HEK-Blue Assay; assay type: cell-based; conditions: not given
Sequence (P01375 77-233 limits assumed): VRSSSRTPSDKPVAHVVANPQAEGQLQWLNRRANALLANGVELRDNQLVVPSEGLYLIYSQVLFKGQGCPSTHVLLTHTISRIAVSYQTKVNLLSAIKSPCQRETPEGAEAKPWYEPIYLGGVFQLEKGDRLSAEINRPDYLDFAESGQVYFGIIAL

| SMILES | IC50 [nM] |
| --- | --- |
| CC(C)C[C@@H]1NC(=O)[C@H](CCCNC(=N)N)NC(=O)[C@H](C(C)C)NC(=O)[C@@H]2CCCN2C(=O)[C@H](C(C)C)NC(=O)[C@@H](CCCNC(=N)NCCCCC(N)=O)NC(=O)[C@H](CC(=O)O)NC(=O)[C@@H]2CCCN2C(=O)CN(C)C(=O)[C@H](Cc2ccc(-c3ccc(NC(=O)c4nn(CC(=O)O)c5ccccc45)cc3)cc2)NC(=O)[C@H](Cc2ccc(-c3ccccc3)cc2)NC(=O)[C@H](CN2CCOCC2)NC(=O)CSC[C@@H](C(=O)NCC(N)=O)NC1=O [Example 391] ({CH2CO}-[Ala(morpholin-4-yl)][Bip][Bip(4'-NH)](Indazole3carbonyl(1-CH2COOH))[Sar]PD[X6]VPVRLCG-NH2; thioether N-13) | 50 to 200 |
| CC(C)C[C@@H]1NC(=O)[C@H](Cc2ccc(O)cc2)NC(=O)[C@H](C(C)C)NC(=O)[C@@H]2CCCN2C(=O)[C@H](C(C)C)NC(=O)[C@@H](CCCNC(=N)NC[C@H](O)CO)NC(=O)[C@H](CC(=O)O)NC(=O)[C@@H]2CCCN2C(=O)CN(C)C(=O)[C@H](Cc2ccc(-c3ccc(NC(=O)c4nn(CC(=O)O)c5ccccc45)cc3)cc2)NC(=O)[C@H](Cc2ccc(-c3ccc(C(=O)O)cc3)cc2)NC(=O)[C@H](CC2CCCCC2)NC(=O)CSC[C@@H](C(=O)NCC(N)=O)NC1=O [Example 545] ({CH2CO}-[Cha][Bip(4'-COOH)][Bip(4'-NH)](Indazole3carbonyl(1-CH2COOH))[Sar]PD[dArg(ω-(2S)-2,3-diOHpropyl)]VPVYLCG-NH2; thioether N-13) | 50 to 200 |
| CC(C)C[C@@H]1NC(=O)[C@H](CCCNC(=N)N)NC(=O)[C@H](C(C)C)NC(=O)[C@@H]2CCCN2C(=O)[C@H](C(C)C)NC(=O)[C@@H](CCCNC(=N)NCCc2ccc(O)cc2)NC(=O)[C@H](CC(=O)O)NC(=O)[C@@H]2CCCN2C(=O)CN(C)C(=O)[C@H](Cc2ccc(-c3ccc(NC(=O)c4nn(CC(=O)O)c5ccccc45)cc3)cc2)NC(=O)[C@H](Cc2ccc(-c3ccccc3)cc2)NC(=O)[C@H](CN2CCOCC2)NC(=O)CSC[C@@H](C(=O)NCC(N)=O)NC1=O [Example 403] ({CH2CO}-[Ala(morpholin-4-yl)][Bip][Bip(4'-NH)](Indazole3carbonyl(1-CH2COOH))[Sar]PD[X18]VPVRLCG-NH2; thioether N-13) | 50 to 200 |
| CC(C)C[C@@H]1NC(=O)[C@H](CCCNC(=N)N)NC(=O)[C@H](C(C)C)NC(=O)[C@@H]2CCCN2C(=O)[C@H](C(C)C)NC(=O)[C@@H](CCCNC(=N)NCc2ccc(O)cc2)NC(=O)[C@H](CC(=O)O)NC(=O)[C@@H]2CCCN2C(=O)CN(C)C(=O)[C@H](Cc2ccc(-c3ccc(NC(=O)c4nn(CC(=O)O)c5ccccc45)cc3)cc2)NC(=O)[C@H](Cc2ccc(-c3ccccc3)cc2)NC(=O)[C@H](CN2CCOCC2)NC(=O)CSC[C@@H](C(=O)NCC(N)=O)NC1=O [Example 508] ({CH2CO}-[Ala(morpholin-4-yl)][Bip][Bip(4'-NH)](Indazole3carbonyl(1-CH2COOH))[Sar]PD[X26]VPVRLCG-NH2; thioether N-13) | < 50 |

same assay, conditions: HEK-Blue-CD40L cells, NF-kB-driven secreted alkaline phosphatase reporter; TNFα 0.5 ng/ml; 18 h; read-out: TNF induced HEK-Blue assay IC50 value

| SMILES | IC50 [nM] |
| --- | --- |
| CC(C)C[C@@H]1NC(=O)[C@H](Cc2cccc(C(N)=O)c2)NC(=O)[C@H](C(C)C)NC(=O)[C@@H]2CCCN2C(=O)[C@H](C(C)C)NC(=O)[C@@H](CCCNC(=N)N)NC(=O)[C@H](CC(=O)O)NC(=O)[C@H](Cc2cnc[nH]2)NC(=O)CN(C)C(=O)[C@H](Cc2ccc(-c3ccc(NC(=O)c4cccc(OCC(=O)O)c4)cc3)cc2)NC(=O)[C@H](Cc2ccc(-c3ccc(C(=O)O)cc3)cc2)NC(=O)[C@H](C(C)(C)C)NC(=O)CSC[C@@H](C(=O)NCC(N)=O)NC1=O [Example 590] ({CH2CO}-[Tle][Bip(4'-COOH)][Bip(4'-NH)](Benzoyl(3-OCH2COOH))[Sar]HD[dR]VPV[Phe(3-CONH2)]LCG-NH2; thioether N-13) | < 50 |
| CC(C)C[C@@H]1NC(=O)[C@H](Cc2ccccn2)NC(=O)[C@H](C(C)C)NC(=O)[C@@H]2CCCN2C(=O)[C@H](C(C)C)NC(=O)[C@@H](CCCNC(=N)N)NC(=O)[C@H](CC(=O)O)NC(=O)[C@H](Cc2ccc(O)cc2)NC(=O)CN(C)C(=O)[C@H](Cc2ccc(-c3ccc(NC(=O)c4nn(C)c5ccccc45)cc3)cc2)NC(=O)[C@H](Cc2ccc(-c3ccc(C(=O)O)cc3)cc2)NC(=O)[C@H](CC2CCCCC2)NC(=O)CSC[C@@H](C(=O)NCC(N)=O)NC1=O [Example 339] ({CH2CO}-[Cha][Bip(4'-COOH)][X5][Sar]YD[dR]VPV[2Pal]LCG-NH2; thioether N-13) | < 50 |
| CC(C)C[C@@H]1NC(=O)[C@H](Cc2cnc[nH]2)NC(=O)[C@H](C(C)C)NC(=O)[C@@H]2CCCN2C(=O)[C@H](C(C)C)NC(=O)[C@@H](CCCNC(=N)N)NC(=O)[C@H](CC(=O)O)NC(=O)[C@H](Cc2ccccc2)NC(=O)CN(C)C(=O)[C@H](Cc2ccc(-c3ccc(NC(=O)c4ccc(OCC(=O)O)cc4)cc3)cc2)NC(=O)[C@H](Cc2ccc(-c3ccccc3)cc2)NC(=O)[C@H](CN2CCOCC2)NC(=O)CSC[C@@H](C(=O)NCC(N)=O)NC1=O [Example 492] ({CH2CO}-[Ala(morpholin-4-yl)][Bip][Bip(4'-NH)](Benzoyl(4-OCH2COOH))[Sar]FD[dR]VPVHLCG-NH2; thioether N-13) | < 50 |
| CC(C)C[C@@H]1NC(=O)[C@H](Cc2ccc(O)cc2)NC(=O)[C@H](C(C)C)NC(=O)[C@@H]2Cc3ccccc3CN2C(=O)[C@H](C(C)C)NC(=O)[C@@H](CCCNC(=N)N)NC(=O)[C@H](CC(=O)O)NC(=O)[C@@H]2CCCN2C(=O)CN(C)C(=O)[C@H](Cc2ccc(-c3ccc(NC(=O)c4cccc(-c5ccc(C(=O)O)cc5)c4)cc3)cc2)NC(=O)[C@H](Cc2ccc(-c3ccc(C(=O)O)cc3)cc2)NC(=O)[C@H](CC2CCCCC2)NC(=O)CSC[C@@H](C(=O)NCC(N)=O)NC1=O [Example 381] ({CH2CO}-[Cha][Bip(4'-COOH)][Bip(4'-NH)](X67)[Sar]PD[dR]V[Tic]VYLCG-NH2; thioether N-13) | 50 to 200 |

The remaining lines, values ahead:

| IC50 [nM] | SMILES |
| --- | --- |
| 200 to 2000 | CC(C)C[C@@H]1NC(=O)[C@H](CCCNC(=N)N)NC(=O)[C@H](C(C)C)NC(=O)[C@@H]2C[C@@H](O)CN2C(=O)[C@H](C(C)C)NC(=O)[C@H](CCCNC(=N)N)NC(=O)[C@H](CC(=O)O)NC(=O)[C@@H]2CCCN2C(=O)CN(C)C(=O)[C@H](Cc2ccc(-c3ccccc3)cc2)NC(=O)[C@H](Cc2ccc(-c3ccccc3)cc2)NC(=O)[C@H](CN2CCOCC2)NC(=O)CSC[C@@H](C(=O)NCC(N)=O)NC1=O [Example 70] ({CH2CO}-[Ala(morpholin-4-yl)][Bip][Bip][Sar]PDRV[Hyp]VRLCG-NH2; thioether N-13) |
| < 50 | CC(C)C[C@@H]1NC(=O)[C@H](CCCNC(=N)N)NC(=O)[C@H](C(C)C)NC(=O)[C@@H]2CCCN2C(=O)[C@H](C(C)C)NC(=O)[C@@H](CCCNC(=N)N)NC(=O)[C@H](CC(=O)O)NC(=O)[C@@H]2CCCN2C(=O)CN(C)C(=O)[C@H](Cc2ccc(-c3cccc(NC(=O)c4coc5ccccc45)c3)cc2)NC(=O)[C@H](Cc2ccc(-c3ccccc3)cc2)NC(=O)[C@H](CN2CCOCC2)NC(=O)CSC[C@@H](C(=O)NCC(N)=O)NC1=O [Example 344] ({CH2CO}-[Ala(morpholin-4-yl)][Bip][X17][Sar]PD[dR]VPVRLCG-NH2; thioether N-13) |
| 200 to 2000 | CC(=O)Nc1ccc(-c2ccc(C[C@@H]3NC(=O)[C@H](CN4CCOCC4)NC(=O)CSC[C@@H](C(=O)NCC(N)=O)NC(=O)[C@H](C(C)C)NC(=O)[C@H](CCCNC(=N)N)NC(=O)[C@H](C(C)C)NC(=O)[C@@H]4CCCN4C(=O)[C@H](C(C)C)NC(=O)[C@@H](CCCNC(=N)N)NC(=O)[C@H](CC(=O)O)NC(=O)[C@@H]4CCCN4C(=O)CN(C)C(=O)[C@H](Cc4ccc(-c5ccccc5)cc4)NC3=O)cc2)cc1 [Example 85] ({CH2CO}-[Ala(morpholin-4-yl)][Bip(4'-NHAc)][Bip][Sar]PD[dR]VPVRVCG-NH2; thioether N-13) |
| 50 to 200 | CC(=O)Nc1ccc(-c2ccc(C[C@@H]3NC(=O)[C@H](Cc4ccc(-c5ccc(C(=O)O)cc5)cc4)NC(=O)[C@H](CN4CCOCC4)NC(=O)CSC[C@@H](C(=O)NCC(N)=O)NC(=O)[C@H](CC(C)C)NC(=O)[C@H](Cc4ccccc4)NC(=O)[C@H](C(C)C)NC(=O)[C@@H]4CCCN4C(=O)[C@H](C(C)C)NC(=O)[C@@H](CCCNC(=N)N)NC(=O)[C@H](CC(=O)O)NC(=O)[C@H](Cc4ccccc4)NC(=O)CN(C)C3=O)cc2)cc1 [Example 225] ({CH2CO}-[Ala(morpholin-4-yl)][Bip(4'-COOH)][Bip(4'-NHAc)][Sar]FD[dR]VPVFLCG-NH2; thioether N-13) |
| 50 to 200 | CC(=O)Nc1ccc(-c2ccc(C[C@@H]3NC(=O)[C@H](Cc4ccc(-c5ccccc5)cc4)NC(=O)[C@H](CN4CCOCC4)NC(=O)CSC[C@@H](C(=O)NCC(N)=O)NC(=O)[C@H](CC(C)C)NC(=O)[C@H](CCCNC(=N)N)NC(=O)[C@H](C4CCCCC4)NC(=O)[C@@H]4CCCN4C(=O)[C@H](CC(N)=O)NC(=O)[C@@H](CCCNC(=N)N)NC(=O)[C@H](CC(=O)O)NC(=O)[C@H](Cc4ccccn4)NC(=O)CN(C)C3=O)cc2)cc1 [Example 218] ({CH2CO}-[Ala(morpholin-4-yl)][Bip][Bip(4'-NHAc)][Sar][2Pal]D[dR]NP[Chg]RLCG-NH2; thioether N-13) |
| < 50 | CC(C)C[C@@H]1NC(=O)[C@H](CCCNC(=N)N)NC(=O)[C@H](C2CCCCC2)NC(=O)[C@@H]2CCCN2C(=O)[C@H](C(C)C)NC(=O)[C@@H](CCCNC(=N)N)NC(=O)[C@H](CC(=O)O)NC(=O)[C@@H]2CCCN2C(=O)CN(C)C(=O)[C@H](Cc2ccc(-c3ccccc3)cc2)NC(=O)[C@H](Cc2ccc(-c3ccccc3)cc2)NC(=O)[C@H](CN2CCOCC2)NC(=O)CSC[C@@H](C(=O)NCC(N)=O)NC1=O [Example 206] ({CH2CO}-[Ala(morpholin-4-yl)][Bip][Bip][Sar]PD[dR]VP[Chg]RLCG-NH2; thioether N-13) |
| 200 to 2000 | CC(C)C[C@@H]1NC(=O)[C@H](CCCNC(=N)N)NC(=O)[C@H](C(C)C)NC(=O)[C@@H]2CCCN2C(=O)[C@H](C(C)C)NC(=O)[C@H](CCCNC(=N)N)NC(=O)[C@H](CC(=O)O)NC(=O)[C@@H]2CCCN2C(=O)CN(C)C(=O)[C@H](Cc2ccc(-c3ccccc3)cc2)NC(=O)[C@H](Cc2ccc(-c3ccccc3)cc2)NC(=O)[C@H](CCc2ccncc2)NC(=O)CSC[C@@H](C(=O)NCC(N)=O)NC1=O [Example 10] ({CH2CO}-[h4Pal][Bip][Bip][Sar]PDRVPVRLCG-NH2; thioether N-13) |
